Measurements as given in PubChem BioAssay (NCI).
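Compound exposure: 48 hours, 5 concentrations, 96-well plates. At the GI50, growth is halved. TGI: total growth inhibition.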 Where a SMILES comes first, the peptide text is derived from it. The star is where a group is joined. Bn = c1ccc(C*)cc1

Assays:
Assay in all cases: NCI anticancer screen, dose series, 48 h
SN12C renal = tested on: SN12C renal
SNB-75 CNS = tested on: SNB-75 CNS
HCC-2998 colon = tested on: HCC-2998 colon
MOLT-4 leukemia = tested on: MOLT-4 leukemia
NCI/ADR-RES ovarian = tested on: NCI/ADR-RES ovarian
CAKI-1 renal = tested on: CAKI-1 renal
LOX IMVI melanoma = tested on: LOX IMVI melanoma
SW-620 colon = tested on: SW-620 colon
BT-549 breast = tested on: BT-549 breast
M14 melanoma = tested on: M14 melanoma

Compound	TGI (SN12C renal)	TGI (SNB-75 CNS)	TGI (HCC-2998 colon)	TGI (MOLT-4 leukemia)	TGI (NCI/ADR-RES ovarian)	TGI (CAKI-1 renal)	TGI (LOX IMVI melanoma)	TGI (SW-620 colon)	TGI (BT-549 breast)	TGI (M14 melanoma)	GI50 (BT-549 breast)	GI50 (M14 melanoma)
Cc1cc(/N=C/c2ccc(C#N)cc2)n(-c2ccccc2)n1	> 100 µM	> 100 µM	> 100 µM	> 100 µM	> 100 µM	> 100 µM	> 100 µM	> 100 µM	> 100 µM	> 100 µM		
Cc1ccc(-c2c(C#N)c(-c3ccc([N+](=O)[O-])cc3)c(C#N)c(=O)n2NS(=O)(=O)c2ccccc2)cc1	> 100 µM	> 100 µM	> 100 µM	52.8 µM	> 100 µM	> 100 µM	83 µM	> 100 µM	94.9 µM	> 100 µM		
COc1ccc(N=Nc2c3c(c(O)c4ccccc24)CCC(C)(C)O3)cc1	38.7 µM	52.9 µM	24.5 µM	> 100 µM	> 100 µM	72.3 µM	29.9 µM	> 100 µM	34.6 µM	39.3 µM		
CC(C)(C)c1ccc(OCC(=O)O)c(Cl)c1	> 100 µM	> 100 µM	> 100 µM	> 100 µM	> 100 µM	> 100 µM	> 100 µM	> 100 µM	> 100 µM	> 100 µM		
Cc1c2ccncc2c(C)c2c1[nH]c1ccccc12	4.63 µM	2.64 µM	4.87 µM	1.75 µM	2.93 µM	3.81 µM	4.2 µM	2.07 µM	3.34 µM	2.33 µM	1.56 µM	0.979 µM
C=C1C(=O)OC2/C=C(/C)C3(O)OC(C)(CC(OC(=O)C(C)C)C12)CC3OC(C)=O (configuration not stated)	17.5 µM	> 100 µM	16.5 µM	> 31.6 µM	> 100 µM	7.18 µM	> 68.8 µM	> 45.1 µM	22.3 µM	68 µM		
COc1cc(C=C2C(=O)NC(=S)NC2=O)cc(OC)c1OC	> 100 µM	> 100 µM	> 100 µM	> 100 µM	> 100 µM	> 100 µM	> 100 µM	> 100 µM	> 100 µM	> 100 µM		
O=C1CCc2ccc3c(c21)CC1(Cc2ccccc2C1)C3	> 100 µM	> 100 µM	49.3 µM	> 100 µM	53.6 µM	> 100 µM	20.1 µM	> 100 µM	> 100 µM	> 100 µM		
O=C1c2cccc(NCCNCCO)c2C(=O)c2cccc(NCCNCCO)c21	5.82 µM	3.03 µM	2.45 µM	6.3 µM	30.9 µM	4.56 µM	1.65 µM	11 µM	8.85 µM	3.57 µM		
O=C(CNCc1ccccc1)Oc1c(Cl)c(Cl)c(Cl)c(Cl)c1Cl	> 100 µM	> 100 µM	53.9 µM	50.6 µM	> 100 µM	56.1 µM	74.4 µM	84.5 µM	44.2 µM	> 100 µM		
COC(=O)C(CC(C)C)NC(=O)C(N)Cc1ccc(OCc2ccccc2)cc1 (configuration not stated) (H-Tyr(Bn)-Leu-OMe; configuration not given here)	> 10 µM	> 10 µM	> 10 µM	> 10 µM	> 10 µM	> 10 µM	> 10 µM	> 10 µM	> 10 µM	> 10 µM		
O=C(O)c1c2c(cc3c1CC1(Cc4ccccc4C1=O)C3)CCC2 (configuration not stated)	> 100 µM	> 94.6 µM	13.4 µM	36 µM	> 100 µM	> 100 µM	> 89.1 µM	> 100 µM	> 93.4 µM	70.7 µM		
Clc1ccc(Cl)c(SCCCN2CCNCC2)c1	37.8 µM	35.3 µM	12.8 µM	40.6 µM	36.2 µM	41.8 µM	35.8 µM	56.7 µM	33.6 µM	35.3 µM		
COC(=O)c1cc2c(cc1CC(Cc1ccc3c(c1)CCC3)C(=O)OC)CCC2 (configuration not stated)	> 100 µM	> 100 µM	> 100 µM	> 100 µM	> 100 µM	> 100 µM	> 100 µM	> 100 µM	> 100 µM	> 100 µM		
COc1ccc(/C=N/N2C(=O)c3c(N)c(C#N)c(-c4ccccc4)c(-c4ccccc4)c3C2=O)cc1	> 100 µM	> 100 µM	> 100 µM	> 100 µM	> 100 µM	> 100 µM	> 100 µM	> 100 µM	> 100 µM	> 100 µM		
Cc1cn2c(C)csc2c1P(=O)(OC(C)C)OC(C)C	> 100 µM	> 100 µM	> 100 µM	> 100 µM	> 100 µM	> 100 µM	> 100 µM	> 100 µM	> 100 µM	> 100 µM		
Cc1cn([C@H]2C[C@](C)(CO)N(C)O2)c(=O)[nH]c1=O	> 100 µM	> 100 µM	> 100 µM	> 100 µM	> 100 µM	> 100 µM	> 100 µM	> 100 µM	> 100 µM	> 100 µM		
O/C(=C\c1nc2ccccc2nc1NC12CC3CC(CC(C3)C1)C2)c1ccc(Br)cc1	> 10 µM	> 10 µM	> 10 µM	> 10 µM	> 10 µM	> 10 µM	> 10 µM	> 10 µM	> 10 µM	> 10 µM		
